According to paper PMC6273621, “Synthesis and the Biological Activity of Phosphonylated 1,2,3-Triazolenaphthalimide Conjugates” (Molecules, 2016):
Where two headings read alike, the source gives them in different places.

Experiments:
[1] = test system: murine leukemia (L1210) cells; assay: Cytostatic activity, L1210 cell proliferation; type: cell-based; settings: Mus musculus, read-out: IC50 L1210
Protocol: (§1) All assays were performed in 96-well microtiter plates. To each well were added (5–7.5) × 10^4 tumor cells and a given amount of the test compound. The cells were allowed to proliferate for 48 h (murine leukemia L1210 cells) or 72 h (human lymphocytic CEM and human cervix carcinoma HeLa cells) at 37 °C in a humidified CO2-controlled atmosphere. At the end of the incubation period, the cells were counted in a Coulter counter.

[2] = test system: human cervix carcinoma cells (HeLa); assay: Cytostatic activity, HeLa cell proliferation; type: cell-based; settings: 72 h, read-out: IC50 HeLa
Protocol: as §1

[3] = test system: human dermal microvascular endothelial HMEC-1 cells; assay: Cytostatic activity, HMEC-1 cell proliferation; type: cell-based
[4] = test system: human T-lymphocyte (CEM) cells; assay: Cytostatic activity, CEM cell proliferation; type: cell-based; settings: CCRF-CEM, 72 h, read-out: IC50 CEM
Protocol: as §1

HEL cells = assay: Cytotoxicity, cell morphology (MCC) in HEL cells; type: cell-based, human; settings: minimum cytotoxic concentration causing microscopically detectable alteration of cell morphology
Description: The cytotoxicity of the tested compounds toward the uninfected host cells was defined as the minimum cytotoxic concentration (MCC) that causes a microscopically detectable alteration of normal cell morphology.

TK+ VZV strain = assay: microbe, parasite or virus in culture; type: cell-based, varicella-zoster virus (VZV) strain Oka; settings: Human alphaherpesvirus 3, HEL, read-out: Antiviral Activity EC50, TK+ VZV Strain, HEL cell cultures; concentration reducing virus plaque formation by 50%
TK− VZV strain = assay: microbe, parasite or virus in culture; type: cell-based, varicella-zoster virus (VZV) strain 07−1; settings: Human alphaherpesvirus 3, HEL, read-out: Antiviral Activity EC50, TK− VZV Strain, HEL cell cultures; concentration reducing virus plaque formation by 50%

Row | IC50 ([1]; L1210, cell proliferation, 48 h) [µM] | IC50 ([2]; cell proliferation) [µM] | SMILES | melting point [°C] | IC50 ([1]; L1210, 48 h) [µM] | IC50 [2] [µM] | IC50 ([3]; HMEC-1, read-out: IC50 HMEC-1) [µM] | IC50 [4] [µM] | IC50 ([3]; HMEC-1, cell proliferation, read-out: IC50 HMEC-1) [µM] | IC50 ([4]; cell proliferation) [µM] | Cytotoxicity, Cell Morphology (MCC) (HEL cells) [μM] | EC50 (TK+ VZV strain) [µM] | EC50 (TK− VZV strain) [µM]
1 | – | – | CCOP(=O)(CNC(=O)Cn1cc(CN2C(=O)c3cccc4cc([N+](=O)[O-])cc(c34)C2=O)nn1)OCC [Compound 16i, Diethyl 2-{4-[(5-Nitro-1,3-dioxo-1H-benzo[de]isoquinolin-2(3H)-yl)methyl]-1H-1,2,3-triazol-1-yl}acetamido-methylphosphonate] | 217 to 219 | > 250 | 86 ± 6 | > 250 | > 250 | – | – | – | – | –
2 | – | – | CCOP(=O)(Cn1cc(CN2C(=O)c3cccc4c(Br)ccc(c34)C2=O)nn1)OCC [Compound 15a, Diethyl {4-[(6-Bromo-1,3-dioxo-1H-benzo[de]isoquinolin-2(3H)-yl)methyl]-1H-1,2,3-triazol-1-yl}methylphosphonate] | 158 to 159 | 28 ± 1 | 88 ± 5 | 185 ± 40 | 60 ± 27 | – | – | – | – | –
3 | – | – | CCOP(=O)(CCCCn1cc(CN2C(=O)c3cccc4cc(N)cc(c34)C2=O)nn1)OCC [Compound 17d, Diethyl 4-{4-[(5-Amino-1,3-dioxo-1H-benzo[de]isoquinolin-2(3H)-yl)methyl]-1H-1,2,3-triazol-1-yl}butylphosphonate] | 218 to 220 | > 250 | 116 ± 60 | – | > 250 | – | – | – | – | –
4 | – | – | CCOP(=O)(CC(O)Cn1cc(CN2C(=O)c3cccc4cccc(c34)C2=O)nn1)OCC (stereo not shown) [Compound 14f, Diethyl 3-{4-[(1,3-Dioxo-1H-benzo[de]isoquinolin-2(3H)-yl)methyl]-1H-1,2,3-triazol-1-yl}-2-hydroxypropylphosphonate] | > 260 | > 250 | 168 ± 26 | > 250 | 158 ± 4 | – | – | – | – | –
5 | – | – | CCOP(=O)(CCn1cc(CN2C(=O)c3cccc4cc(N)cc(c34)C2=O)nn1)OCC [Compound 17b, Diethyl 2-{4-[(5-Amino-1,3-dioxo-1H-benzo[de]isoquinolin-2(3H)-yl)methyl]-1H-1,2,3-triazol-1-yl}ethylphosphonate] | – | > 250 | 69 ± 12 | – | 120 ± 7 | – | – | – | – | –
6 | > 250 | 48 ± 8 | C#CCN1C(=O)c2cccc3cccc(c23)C1=O [Compound 7, 2-(Prop-2-yn-1-yl)-1H-benzo[de]isoquinoline-1,3(2H)-dione] | 239 to 240 | – | – | – | – | 138 ± 38 | 206 ± 42 | – | – | –
7 | – | – | CCOP(=O)(CCCCn1cc(CN2C(=O)c3cccc4c(Br)ccc(c34)C2=O)nn1)OCC [Compound 15d, Diethyl 4-{4-[(6-Bromo-1,3-dioxo-1H-benzo[de]isoquinolin-2(3H)-yl)methyl]-1H-1,2,3-triazol-1-yl}butylphosphonate] | – | 17 ± 3 | 55 ± 2 | 92 ± 43 | 22 | – | – | 100 | 40.4 | 37.5
8 | – | – | CCOP(=O)(COCCn1cc(CN2C(=O)c3cccc4cc(N)cc(c34)C2=O)nn1)OCC [Compound 17g, Diethyl 2-{4-[(5-Amino-1,3-dioxo-1H-benzo[de]isoquinolin-2(3H)-yl)methyl]-1H-1,2,3-triazol-1-yl}ethoxy-methylphosphonate] | 221 to 223 | > 250 | 97 ± 42 | – | > 250 | – | – | – | – | –
9 | – | – | CCOP(=O)(CNC(=O)Cn1cc(CN2C(=O)c3cccc4cc(N)cc(c34)C2=O)nn1)OCC [Compound 17i, Diethyl 2-{4-[(5-Amino-1,3-dioxo-1H-benzo[de]isoquinolin-2(3H)-yl)methyl]-1H-1,2,3-triazol-1-yl}acetamido-methylphosphonate] | 222 to 224 | > 250 | 112 ± 58 | – | > 250 | – | – | – | – | –
10 | – | – | CCOP(=O)(OCC)C(O)Cn1cc(CN2C(=O)c3cccc4c(Br)ccc(c34)C2=O)nn1 (stereo not shown) [Compound 15e, Diethyl 2-{4-[(6-Bromo-1,3-dioxo-1H-benzo[de]isoquinolin-2(3H)-yl)methyl]-1H-1,2,3-triazol-1-yl}-1-hydroxyethylphosphonate] | 198 to 200 | 42 ± 15 | > 250 | > 250 | 196 ± 60 | – | – | – | – | –
11 | – | – | CCOP(=O)(Cn1cc(CN2C(=O)c3cccc4cc(N)cc(c34)C2=O)nn1)OCC [Compound 17a, Diethyl {4-[(5-Amino-1,3-dioxo-1H-benzo[de]isoquinolin-2(3H)-yl)methyl]-1H-1,2,3-triazol-1-yl}methylphosphonate] | – | 177 ± 76 | 101 ± 78 | – | 214 ± 5 | – | – | – | – | –
12 | – | – | CCOP(=O)(CNC(=O)Cn1cc(CN2C(=O)c3cccc4cccc(c34)C2=O)nn1)OCC [Compound 14i, Diethyl 2-{4-[(1,3-Dioxo-1H-benzo[de]isoquinolin-2(3H)-yl)methyl]-1H-1,2,3-triazol-1-yl}acetamido-methylphosphonate] | 170 to 171 | > 250 | > 250 | > 250 | ≥ 250 | – | – | – | – | –
13 | – | – | CCOP(=O)(CNC(=O)Cn1cc(CN2C(=O)c3cccc4c(Br)ccc(c34)C2=O)nn1)OCC [Compound 15i, Diethyl 2-{4-[(6-Bromo-1,3-dioxo-1H-benzo[de]isoquinolin-2(3H)-yl)methyl]-1H-1,2,3-triazol-1-yl}acetamido-methylphosphonate] | 173 to 174 | 31 ± 2 | > 250 | > 250 | 137 ± 72 | – | – | – | – | –
14 | – | – | CCOP(=O)(CC(O)Cn1cc(CN2C(=O)c3cccc4cc(N)cc(c34)C2=O)nn1)OCC (stereo not shown) [Compound 17f, Diethyl 3-{4-[(5-Amino-1,3-dioxo-1H-benzo[de]isoquinolin-2(3H)-yl)methyl]-1H-1,2,3-triazol-1-yl}-2-hydroxypropylphosphonate] | 222 to 224 | > 250 | 130 ± 77 | – | > 250 | – | – | – | – | –
15 | – | – | CCOP(=O)(OCC)C(O)Cn1cc(CN2C(=O)c3cccc4cc(N)cc(c34)C2=O)nn1 (stereo not shown) [Compound 17e, Diethyl 2-{4-[(5-Amino-1,3-dioxo-1H-benzo[de]isoquinolin-2(3H)-yl)methyl]-1H-1,2,3-triazol-1-yl}-1-hydroxyethylphosphonate] | 170 to 172 | > 250 | 72 ± 58 | – | > 250 | – | – | – | – | –
16 | – | – | CCOP(=O)(CCCn1cc(CN2C(=O)c3cccc4c(Br)ccc(c34)C2=O)nn1)OCC [Compound 15c, Diethyl 3-{4-[(6-Bromo-1,3-dioxo-1H-benzo[de]isoquinolin-2(3H)-yl)methyl]-1H-1,2,3-triazol-1-yl}propylphosphonate] | 118 to 120 | 20 ± 3 | 62 ± 1 | 152 | 52 ± 34 | – | – | – | – | –
17 | – | – | CCOP(=O)(CCOCCn1cc(CN2C(=O)c3cccc4cc(N)cc(c34)C2=O)nn1)OCC [Compound 17h, Diethyl 2-(2-{4-[(5-Amino-1,3-dioxo-1H-benzo[de]isoquinolin-2(3H)-yl)methyl]-1H-1,2,3-triazol-1-yl}ethoxy)ethylphosphonate] | 180 to 183 | 142 ± 2 | 66 ± 3 | – | 109 ± 3 | – | – | – | – | –
18 | – | – | CCOP(=O)(Cn1cc(CN2C(=O)c3cccc4cccc(c34)C2=O)nn1)OCC [Compound 14a] | 110 to 111 | > 250 | > 250 | > 250 | 187 ± 25 | – | – | – | – | –
19 | – | – | CCOP(=O)(CCCn1cc(CN2C(=O)c3cccc4cc(N)cc(c34)C2=O)nn1)OCC [Compound 17c, Diethyl 3-{4-[(5-Amino-1,3-dioxo-1H-benzo[de]isoquinolin-2(3H)-yl)methyl]-1H-1,2,3-triazol-1-yl}propylphosphonate] | 180 to 182 | > 250 | ≥ 250 | – | ≥ 250 | – | – | – | – | –
20 | – | – | CCOP(=O)(COCCn1cc(CN2C(=O)c3cccc4c(Br)ccc(c34)C2=O)nn1)OCC [Compound 15g, Diethyl 2-{4-[(6-Bromo-1,3-dioxo-1H-benzo[de]isoquinolin-2(3H)-yl)methyl]-1H-1,2,3-triazol-1-yl}ethoxy-methylphosphonate] | – | 24 ± 3 | 84 ± 16 | 152 ± 1 | 66 ± 20 | – | – | – | – | –
21 | – | – | CCOP(=O)(COCCn1cc(CN2C(=O)c3cccc4cccc(c34)C2=O)nn1)OCC [Compound 14g, Diethyl 2-{4-[(1,3-Dioxo-1H-benzo[de]isoquinolin-2(3H)-yl)methyl]-1H-1,2,3-triazol-1-yl}ethoxy-methylphosphonate] | 154 to 155 | > 250 | 215 ± 49 | ≥ 250 | 168 ± 29 | – | – | – | – | –
22 | – | – | CCOP(=O)(CCn1cc(CN2C(=O)c3cccc4cccc(c34)C2=O)nn1)OCC [Compound 14b, Diethyl 2-{4-[(1,3-Dioxo-1H-benzo[de]isoquinolin-2(3H)-yl)methyl]-1H-1,2,3-triazol-1-yl}ethylphosphonate] | 63 to 64 | > 250 | 204 ± 65 | > 250 | 148 ± 59 | – | – | – | – | –
